In general, IC50 refers to the midpoint of a concentration-inhibition curve.

The assay concerns the target T1, recombinant sEH (Homo sapiens, UniProt P34913).
T1 construct: made in house; host or cells: Sf9 insect cells
T1 sequence (P34913 1-555): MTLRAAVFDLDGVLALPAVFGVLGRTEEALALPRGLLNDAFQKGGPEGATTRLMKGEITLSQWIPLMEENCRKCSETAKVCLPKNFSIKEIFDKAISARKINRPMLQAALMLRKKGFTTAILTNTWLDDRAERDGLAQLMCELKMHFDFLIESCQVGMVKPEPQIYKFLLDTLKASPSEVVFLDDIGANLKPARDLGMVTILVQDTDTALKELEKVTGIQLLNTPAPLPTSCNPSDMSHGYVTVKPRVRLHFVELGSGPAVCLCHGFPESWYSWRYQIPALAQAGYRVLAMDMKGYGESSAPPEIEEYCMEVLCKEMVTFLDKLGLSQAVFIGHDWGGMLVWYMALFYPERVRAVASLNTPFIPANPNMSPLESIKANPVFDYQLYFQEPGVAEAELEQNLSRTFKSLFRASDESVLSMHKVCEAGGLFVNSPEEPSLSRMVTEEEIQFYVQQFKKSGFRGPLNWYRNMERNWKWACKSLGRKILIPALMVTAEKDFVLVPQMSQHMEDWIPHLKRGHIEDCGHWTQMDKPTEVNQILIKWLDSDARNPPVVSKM
Description: biochemical screening assay for inhibition of soluble epoxide hydrolase (fluorometric, Phome substrate). The procedure, abridged:
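Reading fluorescence before substrate addition and after completion corrected for autofluorescence. Reaction: 5 μM Phome, 2 nM recombinant human sEH (Sf9-expressed), compound 0.0001–10 μM, 25 mM Hepes with 0.01% albumin, 15 min pre-incubation then 60 min at 30 °C; IC50 derived from % inhibition.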

For the compound `Cc1ncccc1O[C@H]1CO[C@H]2[C@@H]1OC[C@@H]2NC(=O)NC1(C)COC1` [Example 240, 1-(3-Methyl-oxetan-3-yl)-3-[(3S,3aR,6S,6aS)-6-(2-methyl-pyridin-3-yloxy)-hexahydro-furo[3,2-b]furan-3-yl]-urea], the IC50 was 3430 nM.

Consider `Cc1ncccc1O[C@H]1CO[C@H]2[C@@H]1OC[C@@H]2NC(=O)NC(C)(C)C1CCCCC1` [Example 241, 1-(1-Cyclohexyl-1-methyl-ethyl)-3-[(3S,3aR,6S,6aS)-6-(2-methyl-pyridin-3-yloxy)-hexahydro-furo[3,2-b]furan-3-yl]-urea], for which the IC50 turned out to be 117 nM.

For the compound `Cc1ncccc1OC1COC2C(NC(=O)NCC3CCCCC3(C)O)COC12` [Example 242, 1-((1R,2R)-2-Hydroxy-2-methyl-cyclohexylmethyl)-3-[(3S,3aR,6S,-6aS)-6-(2-methyl-pyridin-3-yloxy)-hexahydro-furo[3,2-b]furan-3-yl]-urea], the IC50 was found to be 37 nM.

For the compound `Cc1ncccc1O[C@H]1CO[C@H]2[C@@H]1OC[C@@H]2NC(=O)NCCCn1nc(C(F)(F)F)cc1C` [Example 243, 1-[(3S,3aR,6S,6aS)-6-(2-Methyl-pyridin-3-yloxy)-hexahydro-furo[3,2-b]furan-3-yl]-3-[3-(5-methyl-3-tri-fluoromethyl-pyrazol-1-yl)-propyl]-urea], the IC50 was determined as 41 nM.

On to `Cc1ncccc1O[C@H]1CO[C@H]2[C@@H]1OC[C@@H]2NC(=O)NC(C)CN1CCCC1=O` (stereo partly drawn) [Example 244, 1-[1-Methyl-2-(2-oxo-pyrrolidin-1-yl)-ethyl]-3-[(3S,3aR,6S,6aS)-6-(2-methyl-pyridin-3-yloxy)-hexahydro-furo[3,2-b]furan-3-yl]-urea], for which the IC50 came to 577 nM.

As for `Cc1ncccc1O[C@H]1CO[C@H]2[C@@H]1OC[C@@H]2NC(=O)NC1CCC(=O)N(C)C1` (stereo partly drawn) [Example 245, 1-(1-Methyl-6-oxo-piperidin-3-yl)-3-[(3S,3aR,6S,6aS)-6-(2-methyl-pyridin-3-yloxy)-hexahydro-furo[3,2-b]furan-3-yl]-urea], the IC50 turned out to be 825 nM.

As for `Cc1ncccc1O[C@H]1CO[C@H]2[C@@H]1OC[C@@H]2NC(=O)NC1CC(=O)N(C(C)C)C1` (stereo partly drawn) [Example 246, 1-(1-Isopropyl-5-oxo-pyrrolidin-3-yl)-3-[(3S,3aR,6S,6aS)-6-(2-methyl-pyridin-3-yloxy)-hexahydro-furo[3,2-b]furan-3-yl]-urea], the IC50 was found to be 317 nM.

Turning to `Cc1ncccc1O[C@H]1CO[C@H]2[C@@H]1OC[C@@H]2NC(=O)NC1CC(=O)N(c2ccccc2)C1` (stereo partly drawn) [Example 247, 1-[(3S,3aR,6S,6aS)-6-(2-Methyl-pyridin-3-yloxy)-hexahydro-furo[3,2-b]furan-3-yl]-3-(5-oxo-1-phenyl-pyrrolidin-3-yl)-urea], the IC50 stood at 65 nM.

For the compound `Cc1ncccc1O[C@H]1CO[C@H]2[C@@H]1OC[C@@H]2NC(=O)NC1(C#N)CCOCC1` [Example 248, 1-(4-Cyano-tetrahydro-pyran-4-yl)-3-[(3S,3aR,6S,6aS)-6-(2-methyl-pyridin-3-yloxy)-hexahydro-furo[3,2-b]furan-3-yl]-urea], the IC50 was 3500 nM.

Regarding `Cc1ncccc1O[C@H]1CO[C@H]2[C@@H]1OC[C@@H]2NC(=O)NC1(C)CCCCC1` [Example 249, 1-(1-Methyl-cyclohexyl)-3-[(3S,3aR,6S,6aS)-6-(2-methyl-pyridin-3-yloxy)-hexahydro-furo[3,2-b]furan-3-yl]-urea], the IC50 was determined as 73 nM.

For the compound `Cc1ncccc1O[C@H]1CO[C@H]2[C@@H]1OC[C@@H]2NC(=O)NC(C)(C)c1ccncc1` [Example 250, 1-(1-Methyl-1-pyridin-4-yl-ethyl)-3-[(3S,3aR,6S,6aS)-6-(2-methyl-pyridin-3-yloxy)-hexahydro-furo[3,2-b]furan-3-yl]-urea], the IC50 amounted to 3120 nM.

Regarding `Cc1ncccc1O[C@H]1CO[C@H]2[C@@H]1OC[C@@H]2NC(=O)NCCN1CCCCC1=O` [Example 251, 1-[(3S,3aR,6S,6aS)-6-(2-Methyl-pyridin-3-yloxy)-hexahydro-furo[3,2-b]furan-3-yl]-3-[2-(2-oxo-piperidin-1-yl)-ethyl]-urea], the half-maximal inhibitory concentration (IC50) was 1560 nM.

Turning to `Cc1ncccc1O[C@H]1CO[C@H]2[C@@H]1OC[C@@H]2NC(=O)NC1CCN(C)C1=O` (stereo partly drawn) [Example 252, 1-(1-Methyl-2-oxo-pyrrolidin-3-yl)-3-[(3S,3aR,6S,6aS)-6-(2-methyl-pyridin-3-yloxy)-hexahydro-furo[3,2-b]furan-3-yl]-urea], the IC50 is 3520 nM.

On to `Cc1ncccc1O[C@H]1CO[C@H]2[C@@H]1OC[C@@H]2NC(=O)NCC1CC(=O)N(C(C)C)C1` (stereo partly drawn) [Example 253, 1-(1-Isopropyl-5-oxo-pyrrolidin-3-ylmethyl)-3-[(3S,3aR,6S,6aS)-6-(2-methyl-pyridin-3-yloxy)-hexahydro-furo[3,2-b]furan-3-yl]-urea], for which the IC50 amounted to 792 nM.

On to `CCN1CC(CNC(=O)N[C@H]2CO[C@H]3[C@@H]2OC[C@@H]3Oc2cccnc2C)CC1=O` (stereo partly drawn) [Example 254, 1-(1-Ethyl-5-oxo-pyrrolidin-3-ylmethyl)-3-[(3S,3aR,6S,6aS)-6-(2-methyl-pyridin-3-yloxy)-hexahydro-furo[3,2-b]furan-3-yl]-urea], for which the IC50 turned out to be 882 nM.

For the compound `Cc1ncccc1O[C@H]1CO[C@H]2[C@@H]1OC[C@@H]2NC(=O)NCC1CCC(=O)N1C` (stereo partly drawn) [Example 255, 1-(1-Methyl-5-oxo-pyrrolidin-2-ylmethyl)-3-[(3S,3aR,6S,6aS)-6-(2-methyl-pyridin-3-yloxy)-hexahydro-furo[3,2-b]furan-3-yl]-urea], the IC50 amounted to 545 nM.

With `Cc1ncccc1O[C@H]1CO[C@H]2[C@@H]1OC[C@@H]2NC(=O)NC1CC(C)CC(C)(C)C1` (stereo partly drawn) [Example 256, 1-[(3S,3aR,6S,6aS)-6-(2-Methyl-pyridin-3-yloxy)-hexahydro-furo[3,2-b]furan-3-yl]-3-(3,3,5-trimethyl-cyclohexyl)-urea], the IC50 came out at 3 nM.

As for `Cc1ncccc1O[C@H]1CO[C@H]2[C@@H]1OC[C@@H]2NC(=O)NC1CCC(C)CC1` (stereo partly drawn) [Example 257, 1-(4-Methyl-cyclohexyl)-3-[(3S,3aR,6S,6aS)-6-(2-methyl-pyridin-3-yloxy)-hexahydro-furo[3,2-b]furan-3-yl]-urea], the IC50 was 3 nM.

For `Cc1ncccc1O[C@H]1CO[C@H]2[C@@H]1OC[C@@H]2NC(=O)NC1CCCC(C)C1` (stereo partly drawn) [Example 258, 1-(3-Methyl-cyclohexyl)-3-[(3S,3aR,6S,6aS)-6-(2-methyl-pyridin-3-yloxy)-hexahydro-furo[3,2-b]furan-3-yl]-urea], the IC50 is 2 nM.

As for `Cc1ncccc1O[C@H]1CO[C@H]2[C@@H]1OC[C@@H]2NC(=O)NC1CCCCC1C` (stereo partly drawn) [Example 259, 1-(2-Methyl-cyclohexyl)-3-[(3S,3aR,6S,6aS)-6-(2-methyl-pyridin-3-yloxy)-hexahydro-furo[3,2-b]furan-3-yl]-urea], the IC50 is 5 nM.

`Cc1ncccc1O[C@H]1CO[C@H]2[C@@H]1OC[C@@H]2NC(=O)NC1CCC(C(C)(C)C)CC1` (stereo partly drawn) [Example 260, 1-(4-tert-Butyl-cyclohexyl)-3-[(3S,3aR,6S,6aS)-6-(2-methyl-pyridin-3-yloxy)-hexahydro-furo[3,2-b]furan-3-yl]-urea]: the IC50 is 8 nM.

As for `Cc1ncccc1O[C@H]1CO[C@H]2[C@@H]1OC[C@@H]2NC(=O)NC1CCCC(C)C1C` (stereo partly drawn) [Example 261, 1-(2,3-Dimethyl-cyclohexyl)-3-[(3S,3aR,6S,6aS)-6-(2-methyl-pyridin-3-yloxy)-hexahydro-furo[3,2-b]furan-3-yl]-urea], the IC50 came out at 3 nM.
